Like-named read-outs stand apart in the source and are kept apart here.
Columns and labels:
[1] = test system: Clostridium beijerinckii ATCC 10132; conditions: butanol 1.5% to 3.5%, 37° C., 144 h
Protocol: The tolerance was tested in both, the un-optimized AnS medium and optimized AnS medium. The bottles were inoculated with Clostridium beijerinckii ATCC 10132 After inoculation, the medium was incubated at 37° C. for 144 h and the OD at 600 nm was monitored at a regular interval of 12 h.

biological systems = conditions: Jones and Wood, 1986; cited from earlier work

## CCCCO [butanol, n-butanol]
[1]; optimized AnS medium
  butanol concentration tolerated (growth, OD 600 nm): ≤ 3.5%
[1]; un-optimized AnS medium
  butanol concentration tolerated (growth, OD 600 nm): up to 3.0%
Biological systems
  concentration at which butanol is highly toxic to biological systems: 2%

— patent US9217163B2 (priority 2007, dated 2015)
